≈ marks a conversion by molar mass, not a printed value.
What was measured:
[1] = system: IMR-32; experiment: Anticancer activity against human IMR-32 cells assessed as reduction in cell viability incubated for 48 hrs by MTT assay; format: functional, cell-based; conditions: IMR-32, 48 h
[2] = Anticancer activity against HEK293 cells assessed as reduction in cell viability incubated for 48 hrs by MTT assay; format: toxicity, cell-based; conditions: human
[3] = system: A549; experiment: Anticancer activity against human A549 cells assessed as reduction in cell viability incubated for 48 hrs by MTT assay; format: functional, cell-based; conditions: A549, 48 h
[4] = system: HeLa; experiment: Anticancer activity against human HeLa cells assessed as reduction in cell viability incubated for 48 hrs by MTT assay; format: functional, cell-based
[5] = system: Leukemia cell; experiment: Growth inhibition of human Leukemia cell; format: functional
[6] = Growth inhibition of human Melanoma cell; format: functional
[7] = Growth inhibition of human Colon cancer cell line; format: functional
[8] = system: CNS carcinoma cell; experiment: Growth inhibition of human CNS carcinoma cell; format: functional
[9] = Growth inhibition of human Non-small cell lung cancer cell line; format: functional
[10] = system: HepG2; experiment: Cytotoxicity against human HepG2 cells assessed as reduction in cell growth incubated for 24 hrs by MTT assay; format: functional, cell-based; conditions: HepG2, 24 h
[11] = system: MCF7; experiment: Cytotoxicity against human MCF7 cells assessed as reduction in cell growth measured for 24 hrs by MTT assay; format: functional, cell-based; conditions: MCF7, 24 h
[12] = system: Caco-2; experiment: Cytotoxicity against human Caco-2 cells assessed as reduction in cell growth measured for 24 hrs by MTT assay; format: functional, cell-based; conditions: Caco-2, 24 h
[13] = system: MCF7; experiment: Anticancer activity against human MCF7 cells at 500 uM relative to control; format: functional
[14] = system: MCF7; experiment: Anticancer activity against human MCF7 cells at 1.5 uM relative to control; format: functional
[15] = system: MCF7; experiment: Anticancer activity against human MCF7 cells at 31.25 uM relative to control; format: functional
[16] = system: MCF7; experiment: Anticancer activity against human MCF7 cells at 15.6 uM relative to control; format: functional
[17] = system: MCF7; experiment: Anticancer activity against human MCF7 cells at 3.9 uM relative to control; format: functional
[18] = system: MCF7; experiment: Anticancer activity against human MCF7 cells at 7.8 uM relative to control; format: functional
[19] = system: MCF7; experiment: Anticancer activity against human MCF7 cells at 62.5 uM relative to control; format: functional
[20] = system: MCF7; experiment: Anticancer activity against human MCF7 cells at 125 uM relative to control; format: functional
[21] = system: MCF7; experiment: Anticancer activity against human MCF7 cells at 1.9 uM relative to control; format: functional
[22] = system: A549; experiment: Antiproliferative activity against human A549 cells assessed as reduction in cell viability incubated for 24 hrs by MTT assay; format: functional, cell-based; conditions: A549, 24 h
[23] = Antiproliferative activity against human MRC5 cells assessed as reduction in cell viability incubated for 24 hrs by MTT assay; format: toxicity, cell-based
[24] = system: AGS; experiment: Antiproliferative activity against human AGS cells assessed as reduction in cell viability incubated for 24 hrs by MTT assay; format: functional, cell-based
[25] = system: NCI-H1299; experiment: Anticancer activity against human NCI-H1299 cells by MTT assay; format: functional, cell-based
[26] = system: A549; experiment: Anticancer activity against human A549 cells by MTT assay; format: functional, cell-based
[27] = Anticancer activity against human UKF-NB-3 cells by MTT assay; format: functional, cell-based
[28] = Antiproliferative activity against human MCF-10A cells assessed as reduction in cell growth by MTT assay; format: toxicity, cell-based
[29] = system: MDA-MB-231; experiment: Antiproliferative activity against human MDA-MB-231 cells assessed as reduction in cell growth by MTT assay; format: functional, cell-based
[30] = Antiproliferative activity against human HepG2 cells assessed as reduction in cell growth by MTT assay; format: toxicity, cell-based
[31] = system: L02; experiment: Antiproliferative activity against human LO2 cells assessed as reduction in cell growth by MTT assay; format: functional, cell-based
[32] = system: MCF7; experiment: Cytotoxicity against human MCF7 cells assessed as reduction in cell growth incubated for 24 hrs by SRB assay; format: functional, cell-based; conditions: MCF7, 24 h
[33] = system: HepG2; experiment: Cytotoxicity against human HepG2 cells assessed as reduction in cell growth incubated for 24 hrs by SRB assay; format: functional, cell-based; conditions: HepG2, 24 h
[34] = system: HepG2; experiment: Antiproliferative activity against human HepG2 cells assessed as reduction in cell viability incubated for 48 hrs by CCK-8 assay; format: functional, cell-based; conditions: HepG2, 48 h
[35] = system: A549; experiment: Antiproliferative activity against human A549 cells assessed as reduction in cell viability incubated for 48 hrs by CCK-8 assay; format: functional, cell-based; conditions: A549, 48 h
[36] = system: U-251; experiment: Antiproliferative activity against human U-251 cells assessed as reduction in cell viability incubated for 48 hrs by CCK-8 assay; format: functional, cell-based; conditions: U-251, 48 h

## O=[N+]([O-])c1ccccc1-c1nc(-c2ccc(Br)cc2)c(-c2ccc(Br)cc2)[nH]1
[1]
  IC50: 10.3 µM
[2]
  IC50 at 48 h: 94.3 µM
[3]
  IC50: 12.5 µM
[4]
  IC50: 13.6 µM

## Oc1ccc(-n2cnc(-c3cc(O)cc(O)c3)c2)cc1
[5]
  GI50: 4.1 µM
[6]
  GI50: 12.9 µM
[7]
  GI50: 11.5 µM
[8]
  GI50: 11.5 µM
[9]
  GI50: 28.8 µM

## c1ccc(-c2nc(-c3ccc(OCc4cc(COc5ccc(-c6nc(-c7ccccc7)c(-c7ccccc7)[nH]6)cc5)c(COc5ccc(-c6nc(-c7ccccc7)c(-c7ccccc7)[nH]6)cc5)cc4COc4ccc(-c5nc(-c6ccccc6)c(-c6ccccc6)[nH]5)cc4)cc3)[nH]c2-c2ccccc2)cc1
[10]
  IC50: 19.1 µM
[11]
  IC50: 12.6 µM
[12]
  IC50: 34.8 µM

## c1coc(-c2nc(-c3ccc(OCCCOc4ccc(-c5nc(-c6ccco6)c(-c6ccco6)[nH]5)cc4)cc3)[nH]c2-c2ccoc2)c1
[10]
  IC50: 8.14 µM
[11]
  IC50: 59.2 µM
[12]
  IC50: 327 µM

## Cc1ccc(-c2nc(-c3ccccc3)c(-c3ccccc3)n2Cc2ccc(F)cc2)cc1
[13]
  inhibition at 500 µM: 15%
[14]
  inhibition at 1.5 µM: 90%
[15]
  inhibition at 31.25 µM: 47%
[16]
  inhibition at 15.6 µM: 53%
[17]
  inhibition at 3.9 µM: 72%
[18]
  inhibition at 7.8 µM: 66%
[19]
  inhibition at 62.5 µM: 38%
[20]
  inhibition at 125 µM: 29%
[21]
  inhibition at 1.9 µM: 87%

## Fc1ccc(Cn2c(-c3ccc(Cl)cc3)nc(-c3ccccc3)c2-c2ccccc2)cc1
[13]
  inhibition at 500 µM: 12%
[14]
  inhibition at 1.5 µM: 88%
[15]
  inhibition at 31.25 µM: 39%
[16]
  inhibition at 15.6 µM: 55%
[17]
  inhibition at 3.9 µM: 78%
[18]
  inhibition at 7.8 µM: 63%
[19]
  inhibition at 62.5 µM: 30%
[20]
  inhibition at 125 µM: 24%
[21]
  inhibition at 1.9 µM: 65%

## Fc1ccc(Cn2c(-c3ccc(Br)cc3)nc(-c3ccccc3)c2-c2ccccc2)cc1
[13]
  inhibition at 500 µM: 5%
[14]
  inhibition at 1.5 µM: 84%
[15]
  inhibition at 31.25 µM: 30%
[16]
  inhibition at 15.6 µM: 36%
[17]
  inhibition at 3.9 µM: 69%
[18]
  inhibition at 7.8 µM: 63%
[19]
  inhibition at 62.5 µM: 24%
[20]
  inhibition at 125 µM: 20%
[21]
  inhibition at 1.9 µM: 75%

## COc1ccc(C(=O)/C=C/c2nccn2C)cc1
[22]
  IC50: 61.7 µM
[23]
  IC50 at 24 h: 67.4 µM
[24]
  IC50: 20.9 µM

## COc1ccc(C2=N[C@H](c3ccc(Cl)cc3)[C@H](c3ccc(Cl)cc3)N2C(=O)N2CCNC(=O)C2)c(OC(C)C)c1
[25]
  IC50: > 100 µg/mL
[26]
  IC50: 11.1 µg/mL (≈ 19.1 µM)
[27]
  IC50: 5.2 µg/mL (≈ 8.94 µM)

## Clc1ncccc1-c1nc(-c2ccccc2)c(-c2ccccc2)[nH]1
[28]
  IC50: > 50 µM
[29]
  IC50: 24.1 µM
[30]
  IC50: 19.7 µM
[31]
  IC50: > 50 µM

## CC[C@]1(O)C[C@@H]2CN(CCc3c([nH]c4ccccc34)[C@@](C(=O)OC)(c3cc4c(cc3OC)N(C)[C@H]3[C@@](O)(C(=O)OC)[C@H](OC(C)=O)[C@]5(CC)C=CCN6CC[C@]43[C@@H]65)C2)C1.O=S(=O)(O)O [VINBLASTINE SULFATE]
[32]
  IC50: 5.7 µg/mL
[33]
  IC50: 4.6 µg/mL

## Cc1ccc(Nn2c(SCC(=O)Nc3nc(-c4ccccc4)cs3)nc(C)c2C)cc1
[5]
  GI50: 3.91 µM

## O=C(Cn1cnc(-c2ccccc2)c1-c1ccccc1)NCCOC(=O)C12CC3CC(CC(C3)C1)C2
[25]
  IC50: > 100 µg/mL
[26]
  IC50: 43.2 µg/mL (≈ 89.3 µM)
[27]
  IC50: 8.53 µg/mL (≈ 17.6 µM)

## c1ccc(-c2nc(-c3ccc(OCc4c(COc5ccc(-c6nc(-c7ccccc7)c(-c7ccccc7)[nH]6)cc5)c(COc5ccc(-c6nc(-c7ccccc7)c(-c7ccccc7)[nH]6)cc5)c(COc5ccc(-c6nc(-c7ccccc7)c(-c7ccccc7)[nH]6)cc5)c(COc5ccc(-c6nc(-c7ccccc7)c(-c7ccccc7)[nH]6)cc5)c4COc4ccc(-c5nc(-c6ccccc6)c(-c6ccccc6)[nH]5)cc4)cc3)[nH]c2-c2ccccc2)cc1
[10]
  IC50: 9.77 µM
[11]
  IC50: 35.4 µM
[12]
  IC50: 32.5 µM

## O=C(OCCn1c([N+](=O)[O-])cnc1/C=C/c1ccc2ccccc2c1)c1nccc2ccccc12
[34]
  IC50: 0.11 µM
[35]
  IC50: 0.32 µM
[36]
  IC50: 0.1 µM

## Cn1ccnc1/C=C/C(=O)c1ccc(F)cc1
[22]
  IC50: > 100 µM
[23]
  IC50 at 24 h: > 100 µM
[24]
  IC50: 29.3 µM

## COc1ccc(-c2nc(-c3ccccc3)c(-c3ccccc3)n2Cc2ccc(F)cc2)cc1
[13]
  inhibition at 500 µM: 13%
[14]
  inhibition at 1.5 µM: 82%
[15]
  inhibition at 31.25 µM: 54%
[16]
  inhibition at 15.6 µM: 65%
[17]
  inhibition at 3.9 µM: 79%
[18]
  inhibition at 7.8 µM: 73%
[19]
  inhibition at 62.5 µM: 41%
[20]
  inhibition at 125 µM: 39%
[21]
  inhibition at 1.9 µM: 88%

Reference: ChEMBL document CHEMBL6074649, “An insight into recent developments in imidazole based heterocyclic compounds as anticancer agents: Synthesis, SARs, and mechanism of actions” (Eur J Med Chem, 2024)
